Converted amounts (≈) assume the structure as drawn.
Legend:
Assay in all cases: in vitro antibacterial activity (MIC), conventional agar dilution
Assay type in all cases: cell-based
Acinetobacter sp CMX 669 = details: CMX669, brain-heart infusion agar, inoculum 10^4 /plate
Method: (§1) The in vitro antibacterial activity is determined by conventional agar dilution procedures. A brain-heart infusion agar medium containing the drug is inoculated with a microbial culture cultivated on a brain-infusion broth (Difco 0037-01-6) at 36° C. for 18 hours and then observes for growth of the microorganism. The minimum concentration at which growth of the microorganism is inhibited is taken as MIC (ug/ml). The inoculum size is 10^4 /plate.

E. coli Juhl = details: Escherichia coli, brain-heart infusion agar, inoculum 10^4 /plate
Method: as §1

[1] = test system: Ent. aerogenes ATCC 13048; details: Klebsiella aerogenes, ATCC13048, brain-heart infusion agar, inoculum 10^4 /plate
Method: as §1

Ent. faecium ATCC 8043 = details: Enterococcus faecium, ATCC8043, brain-heart infusion agar, inoculum 10^4 /plate
Method: as §1

K. pneumoniae ATCC 8045 = details: Klebsiella pneumoniae, ATCC8045, brain-heart infusion agar, inoculum 10^4 /plate
Method: as §1

P. aeruginosa A5007 = details: Pseudomonas aeruginosa, brain-heart infusion agar, inoculum 10^4 /plate
Method: as §1

P. stuartii CMX 640 = details: Providencia stuartii, CMX640, brain-heart infusion agar, inoculum 10^4 /plate
Method: as §1

Stap. aureus ATCC-6538p = details: Staphylococcus aureus, ATCC6538P, brain-heart infusion agar, inoculum 10^4 /plate
Method: as §1

Stap. epidermis 3519 = details: brain-heart infusion agar, inoculum 10^4 /plate
Method: as §1

Strep. Pyogenes EES61 = details: Streptococcus pyogenes, brain-heart infusion agar, inoculum 10^4 /plate
Method: as §1

Structure (SMILES) | MIC (Acinetobacter sp CMX 669) [µg/mL] | MIC (E. coli Juhl) [µg/mL] | MIC [1] [µg/mL] | MIC (Ent. faecium ATCC 8043) [µg/mL] | MIC (K. pneumoniae ATCC 8045) [µg/mL] | MIC (P. aeruginosa A5007) [µg/mL] | MIC (P. stuartii CMX 640) [µg/mL] | MIC (Stap. aureus ATCC-6538p) [µg/mL] | MIC (Stap. epidermis 3519) [µg/mL] | MIC (Strep. Pyogenes EES61) [µg/mL]
CN1CCN(c2cc3c(cc2F)c(=O)c2c(=O)[nH]sc2n3-c2ccc(F)cc2)CC1 [46(a), 9-p-fluorophenyl-6-fluoro-7-(4-methyl-1-piperazinyl)-2,3,4,9-tetrahydroisothiazolo[5,4-b]quinoline-3,4-dione] | 0.2 (≈ 0.467 µM) | 0.2 (≈ 0.467 µM) | 0.39 (≈ 0.91 µM) | 1.56 (≈ 3.64 µM) | 0.1 (≈ 0.233 µM) | 1.56 (≈ 3.64 µM) | 12.5 (≈ 29.2 µM) | 0.01 (≈ 0.0233 µM) | 0.2 (≈ 0.467 µM) | 1.56 (≈ 3.64 µM)
CC1CN(c2cc3c(cc2F)c(=O)c2c(=O)[nH]sc2n3-c2ccc(F)cc2F)CC1N (stereo not drawn) [46(g), 9-o,p-difluorophenyl-6-fluoro-7-(3-amino-4-methyl-1-pyrrolidinyl)-2,3,4,9-tetrahydroisothiazolo[5,4-b]quinoline-3,4-dione] | 0.1 (≈ 0.224 µM) | 0.05 (≈ 0.112 µM) | 0.1 (≈ 0.224 µM) | 0.2 (≈ 0.448 µM) | 0.1 (≈ 0.224 µM) | 0.78 (≈ 1.75 µM) | 0.39 (≈ 0.874 µM) | 0.05 (≈ 0.112 µM) | 0.1 (≈ 0.224 µM) | 0.78 (≈ 1.75 µM)
CCn1c2cc(N3CCCC3)c(F)cc2c(=O)c2c(=O)[nH]sc21 [46(bbb), 9-ethyl-6-fluoro-7-(1-pyrrolidinyl)-2,3,4,9-tetrahydroisothiazolo[5,4-b]quinoline-3,4-dione] | 0.2 (≈ 0.6 µM) | 0.05 (≈ 0.15 µM) | 0.2 (≈ 0.6 µM) | 0.2 (≈ 0.6 µM) | 0.05 (≈ 0.15 µM) | 0.2 (≈ 0.6 µM) | > 100 | 0.01 (≈ 0.03 µM) | 0.02 (≈ 0.06 µM) | 1.56 (≈ 4.68 µM)
CCn1c2s[nH]c(=O)c2c(=O)c2cc(F)c(N3CCNCC3)c(F)c21 [46(dd), 9-ethyl-6,8-difluoro-7-(piperazinyl)-2,3,4,9-tetrahydroisothiazolo[5,4-b]quinoline-3,4-dione] | 0.2 (≈ 0.546 µM) | 0.05 (≈ 0.136 µM) | 0.05 (≈ 0.136 µM) | 0.2 (≈ 0.546 µM) | 0.05 (≈ 0.136 µM) | 0.78 (≈ 2.13 µM) | 0.78 (≈ 2.13 µM) | 0.05 (≈ 0.136 µM) | 0.05 (≈ 0.136 µM) | 0.39 (≈ 1.06 µM)
CCn1c2cc(N3CCN(C)CC3)c(F)cc2c(=O)c2c(=O)[nH]sc21 [46(l), 9-ethyl-6-fluoro-7-(4-methyl-1-piperazinyl)-2,3,4,9-tetrahydroisothiazolo[5,4-b]quinoline-3,4-dione] | 0.05 (≈ 0.138 µM) | 0.05 (≈ 0.138 µM) | 0.1 (≈ 0.276 µM) | 0.2 (≈ 0.552 µM) | 0.05 (≈ 0.138 µM) | 0.39 (≈ 1.08 µM) | 1.56 (≈ 4.3 µM) | 0.05 (≈ 0.138 µM) | 0.1 (≈ 0.276 µM) | 0.39 (≈ 1.08 µM)
CCn1c2cc(N3CCNCC3)c(F)cc2c(=O)c2c(=O)[nH]sc21 [46(m), 9-ethyl-6-fluoro-7-(1-piperazinyl)-2,3,4,9-tetrhydroisothiazolo[5,4-b]quinoline-3,4-dione] | 0.39 (≈ 1.12 µM) | 0.1 (≈ 0.287 µM) | 0.2 (≈ 0.574 µM) | 0.39 (≈ 1.12 µM) | 0.05 (≈ 0.144 µM) | 0.2 (≈ 0.574 µM) | 0.39 (≈ 1.12 µM) | 0.1 (≈ 0.287 µM) | 0.2 (≈ 0.574 µM) | 0.2 (≈ 0.574 µM)
CC1CN(c2cc3c(cc2F)c(=O)c2c(=O)[nH]sc2n3-c2ccc(F)cc2)CCN1 (stereo not drawn) [46(b), 9-p-fluorophenyl-6-fluoro-7-(3-methyl-1-piperazinyl)-2,3,4,9-tetrahydroisothiazolo[5,4-b]quinoline-3,4-dione] | 0.1 (≈ 0.233 µM) | 0.05 (≈ 0.117 µM) | 0.02 (≈ 0.0467 µM) | 0.78 (≈ 1.82 µM) | 0.01 (≈ 0.0233 µM) | 1.56 (≈ 3.64 µM) | 6.2 (≈ 14.5 µM) | 0.01 (≈ 0.0233 µM) | 0.2 (≈ 0.467 µM) | 0.78 (≈ 1.82 µM)
CCn1c2s[nH]c(=O)c2c(=O)c2cc(F)c(N3CCN(C)CC3)c(F)c21 [46(cc), 9-ethyl-6,8-difluoro-7-(4-methyl-1-piperazinyl)-2,3,4,9-tetrahydroisothiazolo[5,4-b]quinoline-3,4-dione] | 0.1 (≈ 0.263 µM) | 0.1 (≈ 0.263 µM) | 0.2 (≈ 0.526 µM) | 0.39 (≈ 1.03 µM) | 0.05 (≈ 0.131 µM) | 3.1 (≈ 8.15 µM) | 3.1 (≈ 8.15 µM) | 0.1 (≈ 0.263 µM) | 0.2 (≈ 0.526 µM) | 0.78 (≈ 2.05 µM)
O=c1[nH]sc2c1c(=O)c1cc(F)c(N3CCNCC3)cc1n2C1CC1 [46(zz), 9-cyclopropyl-6-fluoro-7-(1-piperazinyl)-2,3,4,9-tetrahydroisothiazolo[5,4-b]quinoline-3,4-dione] | 0.05 (≈ 0.139 µM) | 0.005 (≈ 0.0139 µM) | 0.01 (≈ 0.0277 µM) | 0.1 (≈ 0.277 µM) | 0.005 (≈ 0.0139 µM) | 0.05 (≈ 0.139 µM) | 0.2 (≈ 0.555 µM) | 0.02 (≈ 0.0555 µM) | 0.05 (≈ 0.139 µM) | 0.05 (≈ 0.139 µM)

Next, values leading:

MIC (Acinetobacter sp CMX 669) [µg/mL] | MIC (E. coli Juhl) [µg/mL] | MIC [1] [µg/mL] | MIC (Ent. faecium ATCC 8043) [µg/mL] | MIC (K. pneumoniae ATCC 8045) [µg/mL] | MIC (P. aeruginosa A5007) [µg/mL] | MIC (P. stuartii CMX 640) [µg/mL] | MIC (Stap. aureus ATCC-6538p) [µg/mL] | MIC (Stap. epidermis 3519) [µg/mL] | MIC (Strep. Pyogenes EES61) [µg/mL] | Structure (SMILES)
0.05 | 0.05 | 0.01 | 0.1 | 0.005 | 0.2 | 0.39 | 0.02 | 0.05 | 0.05 | Cl.NC1CCN(c2cc3c(cc2F)c(=O)c2c(=O)[nH]sc2n3C2CC2)C1 (stereo not drawn) [47(b), 9-cyclopropyl-6-fluoro-7-(3-amino-1-pyrrolidinyl)-2,3,4,9-tetrahydroisothiazolo[5,4-b]quinoline-3,4-dione hydrochloride]
0.1 (≈ 0.263 µM) | 0.05 (≈ 0.131 µM) | 0.1 (≈ 0.263 µM) | 0.78 (≈ 2.05 µM) | 0.005 (≈ 0.0131 µM) | 1.56 (≈ 4.1 µM) | 3.1 (≈ 8.15 µM) | 0.1 (≈ 0.263 µM) | 0.2 (≈ 0.526 µM) | 0.39 (≈ 1.03 µM) | CCn1c2s[nH]c(=O)c2c(=O)c2cc(F)c(N3CCNC(C)C3)c(F)c21 (stereo not drawn) [46(xx), 9-ethyl-6,8-difluoro-7-(3-methyl-1-piperazinyl)-2,3,4,9-tetrahydroisothiazolo[5,4-b]quinoline-3,4-dione]
0.02 (≈ 0.0553 µM) | 0.02 (≈ 0.0553 µM) | 0.05 (≈ 0.138 µM) | 0.2 (≈ 0.553 µM) | ≤ 0.005 | 0.39 (≈ 1.08 µM) | 0.78 (≈ 2.16 µM) | 0.005 (≈ 0.0138 µM) | 0.01 (≈ 0.0277 µM) | 0.39 (≈ 1.08 µM) | O=c1[nH]sc2c1c(=O)c1cc(F)c(N3CCC(O)C3)cc1n2C1CC1 (stereo not drawn) [46(ss), 9-cyclopropyl-6-fluoro-7-(3-hydroxy-1-pyrrolidinyl)-2,3,4,9-tetrahydroisothiazolo[5,4-b]quinoline-3,4-dione]
0.2 (≈ 0.483 µM) | 0.05 (≈ 0.121 µM) | 0.1 (≈ 0.241 µM) | 0.78 (≈ 1.88 µM) | 0.02 (≈ 0.0483 µM) | 0.78 (≈ 1.88 µM) | 3.1 (≈ 7.48 µM) | 0.1 (≈ 0.241 µM) | 0.2 (≈ 0.483 µM) | 0.78 (≈ 1.88 µM) | O=c1[nH]sc2c1c(=O)c1cc(F)c(N3CCNCC3)cc1n2-c1ccc(F)cc1 [46(yy), 9-p-fluorophenyl-6-fluoro-7-(1-piperozinyl)-2,3,4,9-tetrahydroisothiazolo[5,4-b]quinoline-3,4-dione]
0.1 (≈ 0.273 µM) | 0.01 (≈ 0.0273 µM) | 0.02 (≈ 0.0546 µM) | 0.2 (≈ 0.546 µM) | 0.01 (≈ 0.0273 µM) | 0.78 (≈ 2.13 µM) | 0.78 (≈ 2.13 µM) | 0.05 (≈ 0.136 µM) | 0.1 (≈ 0.273 µM) | 0.78 (≈ 2.13 µM) | CCn1c2s[nH]c(=O)c2c(=O)c2cc(F)c(N3CCC(N)C3)c(F)c21 (stereo not drawn) [47(g), 9-ethyl-6,8-difluoro-7-(3-amino-1-pyrrolidinyl)-2,3,4,9-tetrahydroisothiazolo[5,4-b]quinoline-3,4-dione]
0.2 (≈ 0.552 µM) | 0.1 (≈ 0.276 µM) | 0.1 (≈ 0.276 µM) | 0.78 (≈ 2.15 µM) | 0.2 (≈ 0.552 µM) | 0.39 (≈ 1.08 µM) | 1.56 (≈ 4.3 µM) | 0.05 (≈ 0.138 µM) | 0.1 (≈ 0.276 µM) | 0.78 (≈ 2.15 µM) | CCn1c2cc(N3CCNC(C)C3)c(F)cc2c(=O)c2c(=O)[nH]sc21 (stereo not drawn) [46(ww), 9-ethyl-6-fluoro-7-(3-methyl-1-piperazinyl)-2,3,4,9-tetrahydroisothiazolo[5,4-b]quinoline-3,4-dione]

From patent US4767762A, “Tricyclic quinoline and naphthyride antibacterials” (Abbott Laboratories, priority 1986, dated 1988)
